{"source": "paper PMC10197133", "about": "“Synthesis, Computational Insights, and Evaluation of Novel Sigma Receptors Ligands” (ACS Chemical Neuroscience, 2023)", "origin": "cited, not measured here", "target": "S1R (Rattus norvegicus, UniProt Q9R0C9)", "sequence (Q9R0C9 whole entry)": "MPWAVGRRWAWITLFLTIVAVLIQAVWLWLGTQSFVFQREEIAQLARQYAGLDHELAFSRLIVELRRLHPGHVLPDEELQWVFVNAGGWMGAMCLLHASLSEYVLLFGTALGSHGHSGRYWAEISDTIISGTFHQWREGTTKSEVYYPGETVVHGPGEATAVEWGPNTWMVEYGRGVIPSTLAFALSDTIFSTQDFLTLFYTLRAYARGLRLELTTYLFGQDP", "conditions": "statement in the introduction; cited from earlier work"}
{"smiles": "CCCN1CCC(c2cccc(S(C)(=O)=O)c2)CC1", "note": "[Pridopidine]", "values": [{"measurement": "fold greater affinity for S1R than for D2", "result": 100, "unit": "fold"}]}
